pIC50: −log10 of the molar value. Activity calls are given as the source filed them.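 How the source made its calls: active means compounds whose fitted half-maximal concentration in the cell-protection dose series is at or below a set limit; inactive means the rest.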

The test system of this assay is H9c2 cardiomyocytes, 2-deoxyglucose stress, ATP luminescence, 2 h. In words: protection of cardiomyocytes from 2-deoxyglucose injury, dose response, cell-based, 2-deoxyglucose stress, uHTS hits (AID 588780).
Regarding `CCCOc1ccc2[nH]c(C(=O)N/N=C/c3cc(OC)c(OC)c(OC)c3)cc2c1`, the negative-log IC50 (pIC50) is 5.04.

As to `COc1ccc(S(=O)(=O)N2CC(O)CC2C(=O)OCc2nc3sc(C)c(C)c3c(=O)[nH]2)cc1` (stereo not drawn), the IC50 is > 79 µM (inactive).

Regarding `O=c1[nH]nc(Cc2ccccn2)c2ccccc12`, the IC50 was > 79 µM (inactive).

Turning to `Cc1ccc(NC(=O)CCc2nc3ccccc3c(=O)[nH]2)cc1S(=O)(=O)N1CCOCC1`, the IC50 is > 79 µM (inactive).

Regarding `COc1ccccc1NC(=O)COc1ccc(/C=N/NC(=O)c2cccnc2)cc1`, the pIC50 was 4.83.

Turning to `CCOc1cccc(-c2nn3c(-c4ccco4)nnc3s2)c1`, the pIC50 was 4.65.

As to `COc1cccc(OC)c1C(=O)Nc1cc(C)nn1-c1nc2ccccc2[nH]1`, the IC50 is > 79 µM (inactive).

Regarding `C[C@H](CO)N1C[C@H](C)[C@@H](CN(C)S(=O)(=O)c2ccccc2)Oc2ccc(NC(=O)Nc3ccccc3)cc2C1=O`, the pIC50 was 4.62.

For `COc1ccc(CCNC(=O)C(=O)NCC2CCCN2S(=O)(=O)c2ccccc2)cc1OC` (stereo not drawn), the IC50 was > 79 µM (inactive).

For the compound `COc1ccc(-c2cc(C(F)(F)F)n3nc(C(=O)N4CCN(C(=O)c5ccco5)CC4)cc3n2)cc1`, the IC50 was > 79 µM (inactive).

For the compound `O=C(Nc1cccc(N=Cc2cc(Br)cc(Br)c2O)c1)c1ccco1`, the IC50 was > 79 µM (inactive).

For `COc1cc(C(=O)Nc2nc(-c3cccs3)cs2)cc(OC)c1OC`, the pIC50 is 5.14.

On to `COc1cc(C(=O)Nc2nc(OC)c(-c3ccccc3)c(OC)n2)cc(OC)c1OC`, for which the IC50 was > 79 µM (inactive).

For `Cc1cccc(C(=O)N/N=C2\CS(=O)(=O)N(C)c3ccsc32)c1`, the pIC50 was 5.21.

As for `Cc1ccc(C)c(S(=O)(=O)N(C(=O)c2ccncc2)c2ccc(OC(=O)c3ccncc3)cc2)c1`, the IC50 is > 79 µM (inactive).

Take `COc1cc(/C=N/NC(=O)c2cccnc2)ccc1OS(=O)(=O)c1ccc(F)cc1`: the pIC50 is 4.85.

Take `CC(C)CCN(C(=O)CNC(=O)c1ccco1)C(C(=O)NC1CCCCC1)c1ccco1` (stereo not drawn): the IC50 is 37.5 µM (inactive).

Consider `Cc1cc(C)cc(NC(=O)CSc2ccc(-c3ccccn3)nn2)c1`, for which the IC50 is > 79 µM (inactive).

Take `CC(=O)NC(CCc1ccc(Cl)c(Cl)c1)c1cccc(O)c(=O)c1` (stereo not drawn): the IC50 was > 79 µM (inactive).

Consider `COc1cc(C(=O)Nc2cc3c(cc2N2CCCCC2)n(C)c(=O)n3C)cc(OC)c1OC`, for which the pIC50 is 4.60.

For `CCn1c(O)c(/C=N/N=C2CCCCC2)c2cc(C3=NNC(=O)CC3)ccc21`, the pIC50 is 4.90.

As to `CSc1nc2sc3c(c2c(=O)[nH]1)CCC3`, the IC50 was > 79 µM (inactive).

`CCOC(=O)c1cnc2ccc(C(=O)OC)cc2c1NCCc1ccc(OC)c(OC)c1`: the IC50 is > 79 µM (inactive).

`CC(C)NC(=O)COC(=O)Cn1[nH]c(=O)c2ccccc2c1=O`: the IC50 was > 79 µM (inactive).

On to `Cc1ccc(C(c2c(C)n(C)n(-c3ccccc3)c2=O)c2c(C)n(C)n(-c3ccccc3)c2=O)s1`, for which the IC50 is > 79 µM (inactive).

On to `COc1ccc(/C=C/C(=O)c2ccccc2O)cc1CN1CCOCC1`, for which the IC50 was 36.7 µM (inactive).

As to `CC(OC(=O)Cn1[nH]c(=O)c2ccccc2c1=O)C(=O)NC1(C#N)CCCCC1` (stereo not drawn), the IC50 was > 79 µM (inactive).

On to `CCCNC(=O)c1c(N)n(-c2cccc(OC)c2)c2nc3ccccc3nc12`, for which the IC50 was > 79 µM (inactive).

On to `CC(=O)Nc1cc(-c2cccc(NS(C)(=O)=O)c2)cn2c(-c3cccc(C(C)=O)c3)cnc12`, for which the IC50 is > 79 µM (inactive).

Take `COc1cc(/C=C/c2nnc3c4ccccc4ncn23)cc(OC)c1OC`: the IC50 was > 79 µM (inactive).

Regarding `CC(C)(C)NC(=O)c1cc(NC(=O)c2cccs2)cc(NC(=O)c2cccs2)c1`, the IC50 is > 79 µM (inactive).

Regarding `COc1ccccc1OCC(=O)Nc1cccc(-c2nnc(-c3ccco3)o2)c1`, the IC50 was > 79 µM (inactive).

Consider `COc1cccc(-c2nn3c(-c4ccccn4)nnc3s2)c1`, for which the pIC50 is 4.87.

The values above are taken from PubChem BioAssay AID588780 (Sanford-Burnham Center for Chemical Genomics, 2011).
